Assay: xn = mol fraction of the nth substance listed
Settings: 100 kPa, Liquid; for speed of sound: Frequency=3 MHz, Single path-length method; for mass density: Vibrating tube method

CCCCNCCCC [dibutylamine] + CCCC(C)O
Settings | mass density, 293.15 K [kg/m3] | mass density, 298.15 K [kg/m3] | mass density, 303.15 K [kg/m3] | mass density, 308.15 K [kg/m3] | speed of sound, 293.15 K [m/s] | speed of sound, 298.15 K [m/s] | speed of sound, 303.15 K [m/s] | speed of sound, 308.15 K [m/s]
x1 = 0.1007 | 804.553 | 800.484 | 796.354 | 792.163 | 1257.5 | 1238.8 | 1220.2 | 1201.8
x1 = 0.1998 | 799.644 | 795.528 | 791.368 | 787.153 | 1261.6 | 1243 | 1224.2 | 1205.4
x1 = 0.3001 | 794.588 | 790.443 | 786.26 | 782.034 | 1264.1 | 1245.1 | 1226.2 | 1207.6
x1 = 0.4 | 789.453 | 785.286 | 781.088 | 776.854 | 1265 | 1246.3 | 1227.2 | 1208.3
x1 = 0.5004 | 784.348 | 780.174 | 775.972 | 771.739 | 1265.7 | 1246.5 | 1227.4 | 1208.4
x1 = 0.6 | 779.579 | 775.399 | 771.197 | 766.971 | 1266 | 1247 | 1227.7 | 1208.5
x1 = 0.7004 | 774.754 | 770.581 | 766.391 | 762.183 | 1266.2 | 1246.7 | 1227.3 | 1208.2
x1 = 0.7993 | 770.026 | 765.866 | 761.694 | 757.505 | 1265.8 | 1246.4 | 1227.8 | 1207.2
x1 = 0.9004 | 765.576 | 761.434 | 757.282 | 753.116 | 1265.8 | 1245.8 | 1226 | 1206.7
x1 = 1 | 759.579 | 755.48 | 751.374 | 747.268 | 1260.1 | 1240.1 | 1220.3 | 1200.6

CCCCNCCCC [dibutylamine] + CCC(C)O
Settings | mass density, 293.15 K [kg/m3] | mass density, 298.15 K [kg/m3] | mass density, 303.15 K [kg/m3] | mass density, 308.15 K [kg/m3] | speed of sound, 293.15 K [m/s] | speed of sound, 298.15 K [m/s] | speed of sound, 303.15 K [m/s] | speed of sound, 308.15 K [m/s]
x1 = 0.0995 | 802.339 | 798.045 | 793.785 | 789.452 | 1242.3 | 1223.7 | 1205 | 1186.7
x1 = 0.2027 | 796.429 | 792.197 | 787.914 | 783.574 | 1249.9 | 1231 | 1211.9 | 1193.6
x1 = 0.3027 | 791.522 | 787.26 | 782.952 | 778.597 | 1254.5 | 1235.3 | 1216.2 | 1197.1
x1 = 0.3993 | 786.764 | 782.487 | 778.177 | 773.83 | 1257.8 | 1238.8 | 1219.4 | 1200.1
x1 = 0.4995 | 781.846 | 777.578 | 773.281 | 768.951 | 1260.6 | 1241.1 | 1221.7 | 1202.6
x1 = 0.6007 | 776.991 | 772.741 | 768.441 | 764.17 | 1261 | 1241.4 | 1221.9 | 1202.6
x1 = 0.7 | 772.61 | 768.394 | 764.156 | 759.896 | 1261.9 | 1242.7 | 1223.1 | 1203.9
x1 = 0.8002 | 768.643 | 764.449 | 760.24 | 756.011 | 1263.6 | 1243.7 | 1224 | 1204.4
x1 = 0.8989 | 764.755 | 760.595 | 756.428 | 752.248 | 1264.1 | 1244.4 | 1224.6 | 1204.8
x1 = 1 | 759.579 | 755.48 | 751.374 | 747.268 | 1260.1 | 1240.1 | 1220.3 | 1200.6

Reference: the NIST ThermoML archive (doi:10.1016/j.jct.2018.12.012)
